Assay results reported in patent US20240277705A1, “DOSAGE REGIMENS FOR ECUBECTEDIN” (PHARMA MAR S.A., priority 2021, published 2024).
Entries after “also recorded” stand apart in the source; their conditions may differ.

How the values were obtained:
[1] = system: advanced solid tumors; assay: Phase I dose-escalating study, antitumor activity; format: in vivo, human; conditions: patients, various cancers
Excerpt: Antitumor response will be assessed using the RECIST v.1.1 and/or serum tumor markers as appropriate (see above).
Open-label, dose-escalating, phase I trial of PM14 administered as a 3-hour infusion i.v. every 3 weeks (q3wk) in human patients (pts) with advanced solid tumors, adequate organ function and ECOG PS score of 0-1. Two schedules were explored: Schedule A (Day 1 [D1], Day 8 [D8]) and Schedule B (D1).
Secondary Endpoints • Safety: patients will be evaluable for safety if they have received at least one partial infusion of PM14. AEs will be graded according to the NCI-CTCAE v.4. Additionally, treatment-related discontinuations and treatment compliance (dose reduction, skipped doses and/or treatment delays due to AEs), will be described. • Pharmacokinetics: PK analyses will be evaluated in plasma and urine by standard non-compartmental analysis (compartmental modeling may be performed if appropriate). […] Their mutational status might also be analyzed, if relevant. Their correlation with the clinical response and outcome after treatment will be assessed. • Efficacy: patients will be evaluable for efficacy if they receive at least one complete infusion of PM14 and have at least one clinical or radiological tumor assessment as per RECIST v.1.1 or serum markers, or if they are considered to have failed treatment. […]

[2] = system: RXF 393 (renal carcinoma); assay: MTT cell viability assay, RXF 393; format: cell-based; conditions: Homo sapiens, RXF 393, 72 h; read-out: GI50, M (geometric mean, N = 3)
Excerpt: Cell lines and cell culture: The following human cancer cell lines have been used in this example (the collection code and the tissue of origin are shown in brackets): • RXF 393 (NCI) (renal carcinoma) • Caki-1 (ATCC HTB-46) (kidney clear cell carcinoma)
Cell lines were obtained from the American Type Culture Collection (ATCC) or the National Cancer Institute (NCI). Cells were maintained in the appropriate culture medium, namely: • RPMI for RXF 393 • McCoy's 5A for Caki-1
All media were supplemented with 10% FBS, 2 mM L-Glutamine and 100 units/mL of penicillin-streptomycin.
Cell viability assay: To assess the antiproliferative activity of the compounds a colorimetric assay based on 3-(4,5-Dimethylthiazol-2-yl)-2,5-diphenyltetrazolium bromide (MTT) reduction was used. […] Culture medium was then removed and 100 μL of neat DMSO added to each well to dissolve the formazan product into a coloured solution whose absorbance at 540 nm was finally measured in a PolarStar Omega microplate multilabel reader (BMG Labtech, Ortenberg, Germany). […]
GI50 is finally used as reference value. […] To define a significant (ca. 70%) confidence interval for the geometric mean, its value must be multiplied and divided by the corresponding geometric standard deviation (GSD) which was also calculated. […]

COc1c(C)cc2c(c1O)[C@@H]1[C@@H]3[C@@H]4SC[C@]5(N[C@H](CO)Cc6c5[nH]c5ccccc65)C(=O)OC[C@@H](c5c6c(c(C)c(OC(C)=O)c54)OCO6)N3[C@@H](O)[C@H](C2)N1C [PM14, ECUBECTEDIN]
antitumor response [1]: prolonged tumor stabilizations; also recorded: stable disease (SD) | GI50 [2]: 621 pM
